{
  "source": "patent US20090270612A1",
  "about": "“Therapeutic Agent for Osteoporosis Using a Retinoid X Receptor-Related Compound” (priority 2005, published 2009)",
  "tested_on": "OPG knockout mice",
  "assay": "Bone morphometry of lumbar trabecular bone and femoral cortical bone in OPG knockout mice given drug in feed",
  "type": "in vivo, mouse",
  "settings": "0.03% drug in paste feed, 4 weeks",
  "protocol": "OPG knockout mice (6 week-old) were divided into 3 groups with 7 mice being prepared for each group. These mice were obtained from CLEA Japan, Inc. and categorized into three groups: control group (Cont), HX531 group (HX), and LE 135 group (LE). LE135 is a compound synthesized as a nuclear receptor […] (RAR) antagonist.\nPaste feed is prepared by adding sterile water into and softening sterilized pellets in a dish. HX531 group and LE135 group were provided with the paste feed in which a corresponding drug was mixed. The amount of feed provided per day was fixed at 3 g per mouse in a solid state. The amount of drugs was calculated at 0.03% to the feed weight. Although the paste feed was exchanged everyday, almost no feed was left in all groups. A drug was administered successively for 4 weeks, and mice were double-labeled with tetracyclines and calceins by an abdominal administration 4 days and 2 days before they were sacrificed.\nWhile bone morphometry of femur (cortical bone) and lumbar (trabecular bone) was conducted, a histological observation of femur was made. Furthermore, a blood sample was taken before the sacrifice to measure a bone formation marker.",
  "data": [
    {"smiles": "CN1c2ccc([N+](=O)[O-])cc2N=C(c2ccc(C(=O)O)cc2)c2cc3c(cc21)C(C)(C)CCC3(C)C", "note": "[HX531]", "values": [
      {"measurement": "bone mass in a lumbar trabecular bone by bone morphometry", "setting": "FIG. 1", "result": "large compared to the mice from the control group or mice provided with LE135"},
      {"measurement": "trabecula number in a lumbar trabecular bone by bone morphometry", "setting": "FIG. 2", "result": "large compared to the mice from the control group or mice provided with LE135"},
      {"measurement": "bone resorption rate in a lumbar trabecular bone by bone morphometry", "setting": "FIG. 7", "result": "significantly low"},
      {"measurement": "osteoclast surface in a lumbar trabecular bone by bone morphometry", "setting": "FIG. 8", "result": "small compared to the mice from the control group"},
      {"measurement": "rarefaction surface/cortical bone in a femoral cortical bone by bone morphometry", "setting": "FIG. 11", "result": "significantly low compared to the mice from the control group"},
      {"measurement": "porous surface in a femoral cortical bone by bone morphometry", "setting": "FIG. 12", "result": "small"}
    ]}
  ]
}
